Test results taken from patent publication US20250144031A1, “COMPOSITION FOR TREATING SPINAL MUSCULAR ATROPHY” (Hoffmann-La Roche Inc., priority 2023, published 2025).

Experiments:
[1] = Risdiplam solubility in tartaric acid solution with sodium croscarmellose or crospovidone (UPLC); format: physicochemical; details: 0.6 mg/ml tartaric acid in tap water, pH 4.1, stirred 30 minutes, room temperature
Method: 60 mg of Tartaric Acid were dissolved in 100 ml tap water (0.6 mg/ml) at room temperature and protected from light. A representative amount of Sodium Croscarmellose or Crospovidone was added and dispersed. After that, 100 mg of risdiplam were added, the suspension stirred for 30 minutes und the concentration analyzed by UPLC (see Table 11).

[2] = air of a workplace; classified by regulatory authorities at EU and national levels; cited from earlier work
[3] = Impact of sucralose on risdiplam stability; format: physicochemical; details: 25 mg risdiplam and 475 mg Sucralose, 15 days at 70° C./75% Relative Humidity
Method: FIG. 3: Discoloration and decomposition of risdiplam in the presence of Sucralose, a) Risdiplam+Sucralose at time 0, b) risdiplam+Sucralose (70° C./75% Relative Humidity) after 15 days, c) sucralose without Risdiplam (70° C./75% Relative Humidity) after 15 days.
The impact of Sucralose on Risdiplam stability was evaluated. Vial (a) contained […] and is shown at time 0; vial (b) is 25 mg risdiplam and 475 mg Sucralose after 15 days at 70° C./75% Relative Humidity; and vial (c) is Sucralose without Risdiplam after 15 days at 70° C./75% Relative Humidity.

- Concentration (Nominal 1 mg/ml) ([1]; with Crospovidone (75 mg)): 970 µg/mL
- Concentration (Nominal 1 mg/ml) ([1]; with Sodium Croscarmellose (75 mg)): 280 µg/mL
Structure (SMILES): Cc1cn2nc(-c3cc(=O)n4cc(N5CCNC6(CC6)C5)ccc4n3)cc(C)c2n1 [Risdiplam, 7-(4,7-diazaspiro[2.5]octan-7-yl)-2-(2,8-dimethylimidazo[1,2-b]pyridazin-6-yl)pyrido[1,2-a]pyrimidin-4-one]
- IOEL (occupational exposure limit) [2]: 1.0-10 microgram/m3
- Stability of risdiplam in presence of Sucralose [3]: cause discoloration and promote the decomposition of risdiplam
